{"source": "patent US20080300147A1", "about": "“Detection and Treatment of Fibrotic Disorders” (priority 2004, published 2008)", "system": "myometrium", "assay": "Realtime PCR mRNA expression in myometrium, GnRHa therapy vs untreated", "assay_type": "in vivo, human", "source_text": "Tissues. Portions of leiomyoma and matched myometrium were collected from premenopausal women (N=6) who were scheduled to undergo hysterectomy for indications related to symptomatic leiomyomas. Three of the patients received GnRHa therapy for three months prior to surgery. […] To maintain a standard, all leiomyomas selected for this study were between 2 to 3 cm in diameter. […] The tissues were collected at the University of Florida affiliated Shands Hospital with prior approval obtained from the Institutional Review Board.\nQuantitative RealTime PCR. Realtime PCR was utilized for verification of 10 differentially expressed and regulated genes identified in leiomyoma and myometrium as well as LSMC and MSMC from untreated and GnRHa-treated cohorts. The selection of these genes was based not only on their expression values (up or downregulation), but classification and biological functions important to leiomyoma growth and regression, regulation by ovarian steroids, GnRHa and TGF-β. They are IL-11, CITED2, Nur77, EGR3, TGIF, TIEG, p27, p57, GAS-1 and GPRK5 representing cytokines, transcription factors, cell cycle regulators and signal transduction.\n(§1) Portions of leiomyoma and matched myometrium were collected from premenopausal women (N=27) who were scheduled to undergo hysterectomy for symptomatic uterine leiomyomas at the University of Florida affiliated Shands Hospital. Of these patients seven received GnRHa therapy for a period of three months prior to surgery. […] To maintain a standard, leiomyomas used in this study were 2 to 3 cm in diameter. Prior approval was obtained from the University of Florida Institutional Review Board for the experimental protocol of this study.\nas §1, with “patients,” for “patients”\nRealtime PCR. Briefly, total RNA was isolated from leiomyoma and matched myometrium using Trizol Reagent (INVITROGEN, Carlsbad, Calif.) and complimentary DNA was generated from 2 μg of total RNA using Taqman reverse transcription reagent. The newly synthesized cDNA was used for PCR performed in 96-well optical reaction plates with cDNA equivalent to 100 ng RNA in a volume of 50 μl reaction containing 1× Taqman Universal Master Mix, optimized concentrations of FAM-labeled probe and specific forward and reverse primer for FMOD selected from Assay on Demand (APPLIED BIOSYSTEMS). Controls included RNA subjected to RT-PCR without reverse transcriptase and PCR with water replacing cDNA.", "key": {"[1]": {"details": "GnRHa therapy three months vs untreated"}}}
{"smiles": "CCNC(=O)[C@@H]1CCCN1C(=O)[C@H](CCCNC(=N)N)NC(=O)[C@H](CC(C)C)NC(=O)[C@@H](CC(C)C)NC(=O)[C@H](Cc1ccc(O)cc1)NC(=O)[C@H](CO)NC(=O)[C@H](Cc1c[nH]c2ccccc12)NC(=O)[C@H](Cc1c[nH]cn1)NC(=O)[C@@H]1CCC(=O)N1", "note": "[GnRHa, leuprolide acetate]", "values": [{"measurement": "FMOD mRNA expression in myometrium", "setting": "GnRHa therapy three months (N=7) vs untreated", "result": "significantly reduced"}, {"measurement": "CCN3 mRNA expression in myometrium", "setting": "[1]", "result": "significant reduction"}, {"measurement": "CCN4 mRNA expression in myometrium", "setting": "[1]", "result": "significant reduction"}, {"measurement": "S100A4 mRNA expression in myometrium", "setting": "[1]", "result": "significant reduction"}, {"measurement": "CITED2 expression in myometrium", "setting": "GnRHa therapy vs untreated", "result": "increased"}, {"measurement": "GPRK5 expression in myometrium", "setting": "GnRHa therapy vs untreated", "result": "inhibits"}, {"measurement": "IL-11 expression in myometrium", "setting": "GnRHa therapy vs untreated", "result": "suppressed"}, {"measurement": "Nur77 expression in myometrium", "setting": "GnRHa therapy vs untreated", "result": "significant elevation"}]}
